The text below walks through data of patent US5212157A, “Enzyme inhibitors” (Bio-Mega, Inc., priority 1989, dated 1993).

Where a name gives a salt, the structure may show the parent alone. Numbered stars: 1 amine (or outer) side, 2 acyl side, 3 side chain; on linkers, the order of the positions; unused ones are H or OH. Square brackets hold non-standard residues; d marks the D form. Peptide text beside a SMILES is read from it. Ahppa(3S,4S) = O=C(C[C@H](O)[C@H](Cc1ccccc1)N[*:1])[*:2]; ACHPA = O=C(C[C@H](O)[C@H](CC1CCCCC1)N[*:1])[*:2]; Tic = O=C(O)[C@@H]1Cc2ccccc2CN1

For this test, the target named is T1, HIV protease (Human immunodeficiency virus type 1 group M subtype B, UniProt P04585).
T1 construct: HIV protease was expressed in E. coli and purified to ca. 50% purity; made in house; host or cells: E. coli
Kind of test: Recombinant HIV Protease HPLC Assay. Type of test: biochemical. As to conditions: recombinant HIV protease expressed in E. coli; substrate VSFNFPQITL-NH2; pH 6 buffer; 37° C. for 1 h; HPLC quantification. An excerpt:
The procedure is based on the capacity of the test compound to inhibit enzymatic cleavage by HIV protease of a decapeptide (the substrate) having an amino acid sequence which includes a known HIV protease cleavage site of the HIV polyprotein; see H. G. Krausslich et al., Proc. Natl. Acad. Sci. USA, 86, 807 (1989). Details of this assay together with the results obtained for exemplified peptides of formula 1 are described in the examples hereinafter.
Recombinant HIV Protease HPLC Assay
Enzyme: HIV protease was expressed in E. coli and purified to ca. 50% purity according to the procedure described by H.-G. Krausslich et al., Proc. Natl. Acad. Sci. U.S.A., 86, 807 (1989). The enzyme was stored as 10 μL aliquots at -70° C. The aliquots were diluted to 1/10th of the original concentration with buffer prior to use (enzyme working solution).
Substrate: VSFNFPQITL-NH2, MW 1164, see Krausslich et al., supra, was used as substrate. The substrate was made into 10 mM stock in DMSO and stored at -20° C. Prior to use, the stock was diluted with buffer to give a 400 μM solution substrate working solution.
Buffer: 2-(4-Morpholino)ethanesulfonic acid (50 mM), NaCl (25 mM) and EDTA (5 mM) was dissolved in distilled H2 O (90 mL) and the solution was adjusted to pH6 with concentrated aqueous NaOH. The latter solution was diluted to 100 mL with H2 O to give the buffer.
Procedure: (1) The test compound was dissolved in DMSO to give a solution having 40× the final concentration of the test compound in the assay mixture (see step 2) so that the amount of DMSO in the assay mixture was 5% (v,v) or less. (2) The assay mixture was prepared by mixing 10 μL of the substrate working solution, 0.5 μL of the solution of the test compound in DMSO from step 1, and 10 μL of the enzyme working solution. (3) The assay mixture was incubated at 37° C. for 1h. (4) The reaction was quenched by adding 100 μL of 2% aqueous TFA. (5) The substrate and products (i.e. VSFNF and PQITL-NH2) were separated by subjecting 100 μL of the quenched assay mixture to HPLC using Nucleosil ® C18 column with a 26-min linear gradient at 1 mL/min from 11% to 70% acetonitrile in H2 O with 0.05% aqueous TFA. Elution was monitored at 210 nm. (6) A control which was the assay mixture without the test compound, was subjected simultaneously to steps 3 to 5.
Inhibition Studies: Cleavage products and remaining parent substrate were quantified by either peak height or by integration of the appropriate HPLC peaks. Substrate conversion was calculated using the following relationship: [formula] Enzyme inhibition of the test compound was calculated as follows: [formula]
The concentration of the test compound which causes a 50% inhibition of the HIV-protease, i.e. the IC50, was determined as follows: The percent inhibition of the enzyme was determined for a minimum of three different concentrations of the test compound. Thereafter, the IC50 was determined graphically by plotting the percent inhibition of the substrate against the concentration of the test compound.

As a reminder, the IC50 is the point on the concentration scale where inhibition reaches its midpoint. Regarding `CC(C)C[C@H](NC(=O)C[C@H](O)[C@H](Cc1ccccc1)NC(=O)[C@@H](NC(=O)[C@@H]1Cc2ccccc2CN1)C(C)C)C(=O)N[C@@H](Cc1ccccc1)C(N)=O` [Example 16, THIQ-Val-AHPPA-Leu-Phe-NH2.HCl] (H-[Tic]V[Ahppa(3S,4S)]LF-NH2), the IC50 was found to be 25 nM.
The figure for “THIQ-Val-Cha.psi.[CH2 NH]Leu-Leu-Phe-NH2.HCl [Example 20]” is 80 nM; for “THIQ-Val-ACHPA-Ala-Phe-NH2.HCl [Example 7]” it is 17 nM; for `CC(C)C[C@H](NC(=O)C[C@H](O)[C@H](CC1CCCCC1)NC(=O)[C@H](C)NC(=O)[C@@H]1Cc2ccccc2CN1)C(=O)N[C@@H](Cc1ccccc1)C(=O)O` [Example 14, THIQ-Ala-ACHPA-Leu-Phe-OH.HCl] (H-[Tic]A[ACHPA]LF-OH) it is 200 nM.
To “N-[N-[N-[N-[3-(1,2,3,4-Tetrahydroisoquinolyl)carbonyl]-L-alanyl]-4(S)-amino-3(S)-hydroxy-5-cyclohexylpentanoyl]-L-leucyl]-L-phenylalaninamide Hydrochloride [Example 1]” belongs 90 nM.
